From publication PMC9965125, “New NSAID Conjugates as Potent and Selective COX-2 Inhibitors: Synthesis, Molecular Modeling and Biological Investigation” (Molecules, 2023)
Several values for one entry are separate records, joined by “and”; a condition that tells them apart may be missing. Equal entries are not always repeated.

Columns and labels:
[1] = tested on: carrageenan induced paw edema; experiment: carrageenan-induced rat paw edema; type: in vivo; settings: for % Inhibition of Edema ± Standard Error / Mean Edema Thickness: 10 mg/kg indomethacin mol equivalent i.p.; for Mean Edema Thickness: ± standard error
Procedure: Anti-inflammatory activity screening
The anti-inflammatory activity of the tested compounds was determined in-vivo by the acute carrageenan induced paw edema standard method in rats. Adult Wister rats of either sex (pregnant female animals were excluded) weighing 120–150 g were divided into 19 groups of 6 animals each. The tested compounds dissolved in DMSO, at a dose of 10 mg kg-1 (rat body […]
inflammation. The control group was given DMSO only. Paw edema was induced by subcutaneous injection of freshly prepared 1% solution of carrageenan in saline (0.9%, 0.1 ml per rat) into subplantar tissue of the right hind paw of rats. The thickness of the paw was measured (in mm) after successive time intervals (1, 2, 3, 4 and 24 h) and compared with the initial hind paw thickness of each rat for determining the edema thickness. Data were collected, checked, revised and analyzed (SPSS 16). Quantitative variables from normal distribution were expressed as means ± SE “standard error”. The anti-inflammatory activity was expressed as percentage inhibition of edema thickness in treated animals in comparison with the control group according to eqn. (1) […]
% Inhibition of edema= Vc-Vt x 100 … .. (1)
Where, Vc and Vt are the means of edema paw thickness for the control and tested compound treated animal groups, respectively.
The potency of the tested compounds was expressed as % inhibition of edema thickness […]
% Potency = % inhibition of edema for the tested compound treated group x 100 … . (2)

[2] = tested on: acetic acid-induced abdominal writhing; experiment: acetic acid-induced abdominal writhing assay (peripheral analgesic); type: in vivo, mice; settings: for % Inhibition/Protection / Writing Reflex ± SE: 10 mg/kg indomethacin mol equivalent i.p.; for Potency: % inhibition/protection compared to indomethacin; for Writing Reflex ± SE: number of writhing counted for 30 min
Procedure: Peripheral analgesic testing
Peripheral analgesic activity was measured by the standard acetic acid-induced writhing […]
One hour after intraperitoneally (i,p.) administration of 10 mg kg−1 (mice body weight) […]
distilled/sterile water by the aid of two drops of Tween 80, each mouse was injected with 0.1 ml of 1% acetic acid solution i.p. The control group animals were given sterile/distilled water only with few drops of Tween 80. Starting 5 min after the acetic acid injection, the number of muscular contractions in each mouse was counted for 30 min. A significant reduction in the number of writhing by any test compound as compared to control animals was considered as a positive analgesic response. Percentage protection was calculated according to equ. (3), where n stands for the average number of writhing in the control group and n' is the average number of writhing in the treated group. The % potency was calculated by equ. (4) (Table 2).
% Inhibition/protection = n−n′ x100 … . (3)

hot plate latency = experiment: hot plate assay (central analgesic); type: in vivo, mice; settings: for % Protection / Latency Period ± SE: 10 mg/kg indomethacin mol equivalent i.p.; for Latency Period ± SE: cutoff 15 sec; for Potency: at 120 min compared to indomethacin
Procedure: The % potency was calculated by equ. (4) (Table 2). […]
% Potency = % protection of the tested compound x 100 ……. (4) […]
Central analgesic (hot plate) testing
The standard hot plate technique was undertaken by in vivo standard hot plate test [ 1,2]. […]
by placing them on a hot plate maintained at 55 ± 1 °C, 30 min. […]
suspended in sterile/distilled water by the ai d of two drops of Tween 80, and recording the reaction time in seconds for forepaw licking or jumping. The control group animals were given sterile/distilled water only with few drops of Tween 80. The maximum cutoff time was chosen as 15 sec. to prevent tissue damage. Response latencies were measured 30, 60, 90 and 120 min. after the application. The % protection was calculated by equ. ( 5) where, T1, T0 are the latency time mean of the tested compound and control group, respectively (Table 3).

| Compound | % Inhibition of Edema ± Standard Error ([1]; 1 h) | % Inhibition of Edema ± Standard Error ([1]; 4 h) | % Inhibition/Protection [2] | Potency [2] | Writing Reflex ± SE [2] | % Protection (hot plate latency; after 30 min) | Latency Period ± SE (hot plate latency; after 30 min) | % Protection (hot plate latency; after 60 min) | Latency Period ± SE (hot plate latency; after 60 min) | % Protection (hot plate latency; after 90 min) | Latency Period ± SE (hot plate latency; after 90 min) | % Protection (hot plate latency; after 120 min) | Latency Period ± SE (hot plate latency; after 120 min) | Potency (hot plate latency) | % Inhibition of Edema ± Standard Error ([1]; 24 h) | other results |
| --- | --- | --- | --- | --- | --- | --- | --- | --- | --- | --- | --- | --- | --- | --- | --- | --- |
| COc1ccc2c(c1)c(CC(=O)OCc1cn(-c3ccccc3Cl)nn1)c(C)n2C(=O)c1ccc(Cl)cc1 [Compound 8a, (1-(2-Chlorophenyl)-1H-1,2,3-triazol-4-yl)methyl 2-(1-(4-chlorobenzoyl)-5-methoxy-2-methyl-1H-indol-3-yl)acetate] | 0.00 ± 1.5% | 26.9 ± 1.1% | 49.3% | 68.7% | 20.3 ± 1.8 | 82.5% | 12.19 ± 1.9 s | 85.8% | 13.51 ± 1.7 s | 55.4% | 13.85 ± 1.4 s | 51.3% | 13.63 ± 1.3 s | 90.8 | – | Mean Edema Thickness ([1]; 1 h): 0.863 ± 0.07 mm; % Inhibition of Edema ± Standard Error ([1]; 2 h): 44.9 ± 1.7%; Mean Edema Thickness ([1]; 2 h): 0.393 ± 0.08 mm; % Inhibition of Edema ± Standard Error ([1]; 3 h, 10 mg/kg): 32.5% and 32.5 ± 1.5%; Mean Edema Thickness ([1]; 3 h): 0.488 ± 0.07 mm; Mean Edema Thickness ([1]; 4 h): 0.521 ± 0.03 mm; % Inhibition of Edema ± Standard Error ([1]; 24 h, 10 mg/kg): 33.3% and 33.3 ± 2.4%; Mean Edema Thickness ([1]; 24 h): 0.614 ± 0.09 mm; % Potency ([1]; % inhibition of edema thickness relative to indomethacin at 3 h): 40.1% |
| COc1ccc(-n2cc(COC(=O)C(C)c3ccc(CC(C)C)cc3)nn2)cc1 (centres unmarked) [Compound 5f, (1-(4-Methoxyphenyl)-1H-1,2,3-triazol-4-yl)methyl 2-(4-isobutylphenyl)propanoate] | – | 1.8 ± 0.7% | 80.0% | 111.4% | 8.0 ± 1.4 | 90.1% | 12.7 ± 0.9 s | 56.8% | 11.40 ± 1.5 s | 19.0% | 10.60 ± 1.9 s | 0.2% | 9.03 ± 1.6 s | 0.4 | 2.5 ± 0.9% | – |
| CC(C)Cc1ccc(C(C)C(=O)OCc2cn(-c3ccc([N+](=O)[O-])cc3)nn2)cc1 (centres unmarked) [Compound 5g, (1-(4-Nitrophenyl)-1H-1,2,3-triazol-4-yl)methyl 2-(4-isobutylphenyl)propanoate] | 34.0 ± 1.8% | – | 65.0% | 90.5% | 14.0 ± 1.9 | 87.1% | 12.5 ± 2.1 s | 73.2% | 12.59 ± 1.5 s | 19.0% | 10.60 ± 2.6 s | 28.1% | 11.54 ± 2.2 s | 49.7 | 0.00 ± 0.5% | – |
| COc1ccc2c(c1)c(CC(=O)OCc1cn(-c3ccc(C)cc3)nn1)c(C)n2C(=O)c1ccc(Cl)cc1 [Compound 8d, (1-(p-Tolyl)-1H-1,2,3-triazol-4-yl)methyl 2-(1-(4-chlorobenzoyl)-5-methoxy-2-methyl-1H-indol-3-yl)acetate] | 0.00 ± 0.8% | 0.00 ± 0.6% | 62.5% | 87.0% | 15.0 ± 1.6 | 97.8% | 13.21 ± 2.5 s | 74.0% | 12.65 ± 2.0 s | 50.1% | 13.37 ± 1.6 s | 48.6% | 13.39 ± 1.2 s | 86.0 | 0.00 ± 0.4% | % Inhibition of Edema ± Standard Error ([1]; 3 h): 0.00 ± 0.5% |
| COc1ccc2c(c1)c(CC(=O)OCc1cn(-c3ccc(F)cc3)nn1)c(C)n2C(=O)c1ccc(Cl)cc1 [Compound 8c, (1-(4-Fluorophenyl)-1H-1,2,3-triazol-4-yl)methyl 2-(1-(4-chlorobenzoyl)-5-methoxy-2-methyl-1H-indol-3-yl)acetate] | – | – | 41.3% | 57.5% | 23.5 ± 1.4 | 69.5% | 11.32 ± 0.8 s | 29.2% | 9.39 ± 1.1 s | 27.9% | 11.40 ± 1.6 s | 48.1% | 13.34 ± 1.8 s | 85.1 | 0.00 ± 1.0% | – |
| CC(C)Cc1ccc(C(C)C(=O)OCc2cn(-c3ccc(F)cc3)nn2)cc1 (centres unmarked) [Compound 5c, (1-(4-Fluorophenyl)-1H-1,2,3-triazol-4-yl)methyl 2-(4-isobutylphenyl)propanoate] | 0.00 ± 1.0% | – | 83.3% | 116.0% | 6.7 ± 0.5 | 112.1% | 14.17 ± 2.6 s | 106.3% | 15.0 ± 2.3 s | 67.3% | 14.91 ± 2.5 s | – | 10.63 ± 1.8 s | 31.9 | 0.00 ± 0.2% | % Protection (hot plate latency; after 120 min, 10 mg/kg): 18%; % protection relative to its parent drug ibuprofen (hot plate latency; at 30 min): 1.8 folds |
| COc1ccc2c(c1)c(CC(=O)OCc1cn(-c3ccc([N+](=O)[O-])cc3)nn1)c(C)n2C(=O)c1ccc(Cl)cc1 [Compound 8g, (1-(4-Nitrophenyl)-1H-1,2,3-triazol-4-yl)methyl 2-(1-(4-chlorobenzoyl)-5-methoxy-2-methyl-1H-indol-3-yl)acetate] | 20.0 ± 0.7% | – | 96.3% | 134.1% | 1.5 ± 0.4 | 56.6% | 10.46 ± 2.4 s | 45.4% | 10.57 ± 2.7 s | 41.2% | 12.58 ± 2.0 s | 2.7% | 9.25 ± 2.3 s | 4.8 | 0.00 ± 1.2% | – |
| COc1ccc(-n2cc(COC(=O)Cc3c(C)n(C(=O)c4ccc(Cl)cc4)c4ccc(OC)cc34)nn2)cc1 [Compound 8f, (1-(4-Methoxyphenyl)-1H-1,2,3-triazol-4-yl)methyl 2-(1-(4-chlorobenzoyl)-5-methoxy-2-methyl-1H-indol-3-yl)acetate] | – | – | 66.8% | 93.0% | 13.3 ± 1.9 | 66.3% | 11.11 ± 1.6 s | 92.4% | 13.99 ± 1.9 s | 68.4% | 15.00 ± 2.5 s | 66.5% | 15.00 ± 2.6 s | 117.7 | – | anti-inflammatory efficacy (in words) ([1]; carrageenan-induced rat paw edema): no anti-inflammatory efficacy |
